Experimental data taken from patent US7939534B2, “Certain chemical entities, compositions, and methods” (Cytokinetics, Inc., priority 2006, dated 2011).

Target: T1, chicken gizzard smooth muscle myosin subfragment-1 chemically crosslinked to either cardiac or skeletal actin (Gallus gallus, UniProt P10587)
T1 construct: chicken gizzard smooth muscle myosin subfragment-1; from tissue; host or cells: chicken gizzard
Test: Dose dependent smooth muscle myosin ATPase modulation (pyruvate kinase/horseradish peroxidase/pyruvate oxidase-coupled ATPase assay)
Format: biochemical
Conditions: read-out: IC50 Arithmetic Mean
Protocol: In Vitro Model of Dose Dependent Smooth Muscle Myosin Atpase Modulation
Screening assays were performed using a pyruvate kinase and lactate dehydrogenase-coupled ATPase assay containing the following reagents: Potassium PIPES (50 mM ), MgCl2 (3 mM ), KCl (100 mM ), ATP (0.15 mM ), DTT (1 mM ), BSA (0.1 mg/ml), NADH (0.5 mM ), PEP (1.5 mM ), pyruvate kinase (4 U/ml), lactate dehydrogenase (8 U/ml), and antifoam (50 ppm) (concentrations expressed are final assay concentrations). The pH was adjusted to 6.80 at 22° C. by addition of potassium hydroxide. Lead optimization assays were performed with a more sensitive pyruvate kinase/horseradish peroxidase/pyruvate oxidase-coupled ATPase assay containing the following reagents: Potassium PIPES (12 mM ), MgCl2 (2 mM ), KCl (100 mM ), ATP (0.15 mM ), BSA (0.05 mg/ml), potassium phosphate (2 mM ), amplex red (0.1 mM ), PEP (0.1 mM ), pyruvate kinase (4 U/ml), horseradish peroxidase (0.5 U/ml), pyruvate oxidase (0.5 U/ml), and antifoam (50 ppm) (concentrations expressed are final assay concentrations). The pH was adjusted to 7.00 at 22° C. by addition of potassium hydroxide.
The protein components specific to this assay are chicken gizzard smooth muscle myosin subfragment-1 that has been chemically crosslinked to either cardiac or skeletal actin using an excess of 1-Ethyl-3-[3-dimethylaminopropyl]carbodiimide hydrochloride and N-hydroxysuccinimide. The exact concentration of the crosslinked smooth muscle myosin in the assay is determined empirically, by titration to achieve a desired rate of ATP hydrolysis. The concentration varies between protein preparations due to variations in the fraction of active molecules in each preparation.
Compound dose response assays are performed by first preparing a dilution series of test compound, each with an assay mixture containing potassium PIPES, MgCl2, KCl, ATP, BSA, potassium phosphate, amplex red, PEP, crosslinked smooth muscle actomyosin (subfragment-1), antifoam, and water. The assay is started by adding an equal volume of solution containing potassium Pipes, MgCl2, KCl, BSA, potassium phosphate, pyruvate kinase, horseradish peroxidase, pyruvate oxidase, antifoam, and water. ATP hydrolysis is monitored by measuring the fluorescence of amplex red (excitation at 480 nm, emission at 615 nm). The resulting dose response curve is fit by the 4 parameter equation y=Bottom+((Top−Bottom)/(1+((IC50/X)^Hill))). The IC50 is defined as the concentration at which ATPase activity is midway between the top and bottom of the dose response curve.

Compound | IC50 [µM]
CC(=O)NC1CCN(c2ccc(C(=O)NCc3cccnc3)c(NCCc3cccc(F)c3)n2)C1 (stereo not shown) [Compound 118, N-[1-(6-{[2-(3-fluorophenyl)ethyl]amino}-5-[N-(3-pyridylmethyl)carbamoyl]-2-pyridyl)pyrrolidin-3-yl]acetamide] | 20.7
COC(=O)N1CC=C(c2ccc(C(=O)NCc3cccnc3)c(NCCc3cccc(F)c3)n2)CC1 [Compound 61, methyl 4-(6-{[2-(3-fluorophenyl)ethyl]amino}-5-[N-(3-pyridylmethyl)carbamoyl]-2-pyridyl)-1,2,5,6-tetrahydropyridinecarboxylate] | 0.1
O=C(NCc1cccnc1)c1ccc(N2CCCCC2)nc1NCCc1cccc(F)c1 [Compound 0, (2-{[2-(3-fluorophenyl)ethyl]amino}-6-piperidyl(3-pyridyl))-N-(3-pyridylmethyl)carboxamide] | 0.371
N#CN1CCN=C1c1ccc(C(=O)NCc2cccnc2)c(NCCc2cccc(F)c2)n1 [Compound 51, (6-(1-cyano(2-imidazolin-2-yl))-2-{[2-(3-fluorophenyl)ethyl]amino}(3-pyridyl))-N-(3-pyridylmethyl)carboxamide] | 0.435
CNC(=O)CNC(=O)c1ccc(N2CCCC2)nc1NCCc1cccc(F)c1 [Compound 28, 2-[(2-{[2-(3-fluorophenyl)ethyl]amino}-6-pyrrolidinyl(3-pyridyl))carbonylamino]-N-methylacetamide] | 0.329
CC1CCN(c2ccc(C(=O)NCc3cccnc3)c(NCCc3ccccn3)n2)CC1 [Compound 34, {6-(4-methylpiperidyl)-2-[(2-(2-pyridyl)ethyl)amino](3-pyridyl)}-N-(3-pyridylmethyl)carboxamide] | 14.3
CNC[C@@H]1CCN(c2ccc(C(=O)NCc3cccnc3)c(NCCc3cccc(F)c3)n2)C1 [Compound 7, (6-{(3S)-3-[(methylamino)methyl]pyrrolidinyl}-2-{[2-(3-fluorophenyl)ethyl]amino}(3-pyridyl))-N-(3-pyridylmethyl)carboxamide] | 64.8
CC(=O)N1CC=C(c2ccc(C(=O)NCc3cccnc3)c(NCCc3cccc(F)c3)n2)CC1 [Compound 56, (6-(1-acetyl(4-1,2,5,6-tetrahydropyridyl))-2-{[2-(3-fluorophenyl)ethyl]amino}(3-pyridyl))-N-(3-pyridylmethyl)carboxamide] | 0.43
COC(=O)N1CCN(c2ccc(C(=O)NCc3cccnc3)c(NCCc3cccc(F)c3)n2)CC1 [Compound 85, methyl 4-(6-{[2-(3-fluorophenyl)ethyl]amino}-5-[N-(3-pyridylmethyl)carbamoyl]-2-pyridyl)piperazinecarboxylate] | 1.53
CC(=O)N1CCN(c2ccc(C(=O)NCc3cccnc3)c(NCCc3cccc(F)c3)n2)CC1 [Compound 123, (6-(4-acetylpiperazinyl)-2-{[2-(3-fluorophenyl)ethyl]amino}(3-pyridyl))-N-(3-pyridylmethyl)carboxamide] | 8.57
NCCCN1C(=O)CC[C@@H]1CNC(=O)c1cc(F)c(N2CCCC2)nc1NCCc1cccc(F)c1 [Compound 52, N-{[(2R)-1-(3-aminopropyl)-5-oxopyrrolidin-2-yl]methyl}(5-fluoro-2-{[2-(3-fluorophenyl)ethyl]amino}-6-pyrrolidinyl(3-pyridyl))carboxamide] | 0.119
O=C(NCc1cccnc1)c1ccc(N2CCC(N3CCCCC3)CC2)nc1NCCc1cccc(F)c1 [Compound 124, (2-{[2-(3-fluorophenyl)ethyl]amino}-6-(4-piperidylpiperidyl)(3-pyridyl))-N-(3-pyridylmethyl)carboxamide] | 29.7
O=C(NCc1cccnc1)c1ccc(N2CC[C@@H](O)C2)nc1NCCc1cccc(F)c1 [Compound 14, (6-((3R)-3-hydroxypyrrolidinyl)-2-{[2-(3-fluorophenyl)ethyl]amino}(3-pyridyl))-N-(3-pyridylmethyl)carboxamide] | 0.533
CNC(=O)CNC(=O)c1ccc(C2=CCN(C(=O)OC)CC2)nc1NCCc1cccc(F)c1 [Compound 43, methyl 4-(6-{[2-(3-fluorophenyl)ethyl]amino}-5-{N-[(N-methylcarbamoyl)methyl]carbamoyl}-2-pyridyl)-1,2,5,6-tetrahydropyridinecarboxylate] | 0.627
CN(C)C[C@@H]1CCN(c2ccc(C(=O)NCc3cccnc3)c(NCCc3cccc(F)c3)n2)C1 [Compound 9, (6-{(3S)-3-[(dimethylamino)methyl]pyrrolidinyl}-2-{[2-(3-fluorophenyl)ethyl]amino}(3-pyridyl))-N-(3-pyridylmethyl)carboxamide] | 75.1
N-{[(2R)-1-(4-aminobutanoyl)pyrrolidin-2-yl]methyl}(5-fluoro-2-{[2-(3-fluorophenyl)ethyl]amino}-6-pyrrolidinyl(3-pyridyl))carboxamide [Compound 74] | 0.308
CN(C)C(=O)N[C@@H]1CCN(c2ccc(C(=O)NCc3cccnc3)c(NCCc3cccc(F)c3)n2)C1 [Compound 31, N-[(3R)-1-(6-{[2-(3-fluorophenyl)ethyl]amino}-5-[N-(3-pyridylmethyl)carbamoyl](2-pyridyl))pyrrolidin-3-yl](dimethylamino)carboxamide] | 67.8
NCC1CCN(c2ccc(C(=O)NCc3cccnc3)c(NCCc3cccc(F)c3)n2)CC1 [Compound 105, (6-[4-(aminomethyl)piperidyl]-2-{[2-(3-fluorophenyl)ethyl]amino}(3-pyridyl))-N-(3-pyridylmethyl)carboxamide] | 39.1
NC(=O)CCNC(=O)c1ccc(N2CC[C@@H](O)C2)nc1NCCc1cccc(F)c1 [Compound 17, (6-((3R)-3-hydroxypyrrolidinyl)-2-{[2-(3-fluorophenyl)ethyl]amino}(3-pyridyl))-N-(2-carbamoylethyl)carboxamide] | 15.9
O=C(NCc1cccnc1)c1ccc(N2CCCC2=O)nc1NCCc1cccc(F)c1 [Compound 15, (2-{[2-(3-fluorophenyl)ethyl]amino}-6-(2-oxopyrrolidinyl)(3-pyridyl))-N-(3-pyridylmethyl)carboxamide] | 4.56
O=C(NCc1cccnc1)c1ccc(N2CCCC2)nc1NCCc1cccc(F)c1 [Compound 16, (2-{[2-(3-fluorophenyl)ethyl]amino}-6-pyrrolidinyl(3-pyridyl))-N-(3-pyridylmethyl)carboxamide] | 0.131
CN(C)C(=O)c1ccc(N2CC[C@@H](O)C2)nc1NCCc1cccc(F)c1 [Compound 4, (6-((3R)-3-hydroxypyrrolidinyl)-2-{[2-(3-fluorophenyl)ethyl]amino}(3-pyridyl))-N,N-dimethylcarboxamide] | 71.3
O=C(NCc1cccnc1)c1ccc(C2=CCCCC2)nc1NCCc1cccc(F)c1 [Compound 67, (6-cyclohex-1-enyl-2-{[2-(3-fluorophenyl)ethyl]amino}(3-pyridyl))-N-(3-pyridylmethyl)carboxamide] | 0.117
CC(C)(C)OC(=O)NC1CCN(c2ccc(C(=O)NCc3cccnc3)c(NCCc3cccc(F)c3)n2)C1 (stereo not shown) [Compound 91, (tert-butoxy)-N-[1-(6-{[2-(3-fluorophenyl)ethyl]amino}-5-[N-(3-pyridylmethyl)carbamoyl](2-pyridyl))pyrrolidin-3-yl]carboxamide] | 18.5
CN1CC=C(c2ccc(C(=O)NCc3cccnc3)c(NCCc3cccc(F)c3)n2)CC1 [Compound 71, (2-{[2-(3-fluorophenyl)ethyl]amino}-6-(1-methyl(4-1,2,5,6-tetrahydropyridyl))(3-pyridyl))-N-(3-pyridylmethyl)carboxamide] | 4.36
CC(C)(C)OC(=O)N1CC=C(c2ccc(C(=O)NCc3cccnc3)c(NCCc3cccc(F)c3)n2)CC1 [Compound 58, tert-butyl 4-(6-{[2-(3-fluorophenyl)ethyl]amino}-5-[N-(3-pyridylmethyl)carbamoyl]-2-pyridyl)-1,2,5,6-tetrahydropyridinecarboxylate] | 2.15
O=C(NCc1cccnc1)c1ccc(N2CC[C@H](O)C2)nc1NCCc1cccc(F)c1 [Compound 18, (6-((3S)-3-hydroxypyrrolidinyl)-2-{[2-(3-fluorophenyl)ethyl]amino}(3-pyridyl))-N-(3-pyridylmethyl)carboxamide] | 1.02
CN(C)[C@@H]1CCN(c2ccc(C(=O)NCc3cccnc3)c(NCCc3cccc(F)c3)n2)C1 [Compound 92, (6-[(3R)-3-(dimethylamino)pyrrolidinyl]-2-{[2-(3-fluorophenyl)ethyl]amino}(3-pyridyl))-N-(3-pyridylmethyl)carboxamide] | 76
